Measured values as given in patent US20230167073A1 (Teijin Pharma Limited, priority 2020, published 2023).

target: T1, Human TRPC6 (Homo sapiens, UniProt Q9Y210); assay: Evaluation of TRPC6 channel inhibitory activity (1), FLIPR Calcium 5 Assay Kit, OAG stimulation (Compound Nos. 1-1293); format: cell-based; conditions: Human TRPC6 stably-expressing cells, OAG 30 μM, FLIPR Calcium 5 Assay Kit; read-out: Inhibitory activity (pIC50 class) (converted)
T1 construct: expressed in transfected cells
T1 sequence (Q9Y210 1-931): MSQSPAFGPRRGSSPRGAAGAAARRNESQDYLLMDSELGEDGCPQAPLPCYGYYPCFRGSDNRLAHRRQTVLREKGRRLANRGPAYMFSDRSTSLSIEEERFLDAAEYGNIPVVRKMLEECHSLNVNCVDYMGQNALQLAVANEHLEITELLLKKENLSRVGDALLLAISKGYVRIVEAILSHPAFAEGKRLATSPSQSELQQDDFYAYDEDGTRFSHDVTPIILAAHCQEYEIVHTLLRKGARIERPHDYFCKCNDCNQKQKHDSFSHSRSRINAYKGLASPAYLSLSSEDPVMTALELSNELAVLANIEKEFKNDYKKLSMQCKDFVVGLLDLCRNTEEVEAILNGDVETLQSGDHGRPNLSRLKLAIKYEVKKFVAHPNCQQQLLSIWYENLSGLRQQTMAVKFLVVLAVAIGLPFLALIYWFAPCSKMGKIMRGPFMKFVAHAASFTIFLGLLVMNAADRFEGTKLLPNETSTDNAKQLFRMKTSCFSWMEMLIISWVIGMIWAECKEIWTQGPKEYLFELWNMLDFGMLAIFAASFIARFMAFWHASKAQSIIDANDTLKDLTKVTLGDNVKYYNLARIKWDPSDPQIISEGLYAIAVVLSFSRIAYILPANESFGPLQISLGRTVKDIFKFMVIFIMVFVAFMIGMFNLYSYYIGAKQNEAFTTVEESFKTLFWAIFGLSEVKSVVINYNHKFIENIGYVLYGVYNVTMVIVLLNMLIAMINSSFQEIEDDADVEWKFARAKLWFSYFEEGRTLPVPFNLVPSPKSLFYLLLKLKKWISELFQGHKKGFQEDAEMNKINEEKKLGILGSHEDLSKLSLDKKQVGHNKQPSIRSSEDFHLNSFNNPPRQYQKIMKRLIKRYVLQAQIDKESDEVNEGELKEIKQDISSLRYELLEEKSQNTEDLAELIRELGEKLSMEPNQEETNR
Procedure, shortened: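 Readout is pIC50 from four-parameter logistic fitting of inhibition of the OAG-evoked (30 μM final) fluorescence calcium signal. Human TRPC6 stable cells are dye-loaded with probenecid, and compound is applied 20 min ahead of agonist.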

Row | IC50 [nM] | Structure (SMILES)
1 | < 10 | CC(C)n1cc(C(=O)c2cc(C#N)ccc2-c2ncc(CN)cn2)cn1 [compound 1045, 4-[5-(aminomethyl)pyrimidin-2-yl]-3-(1-propan-2-ylpyrazole-4-carbonyl)benzonitrile]
2 | < 10 | N#Cc1ccc(-c2ncc(CCN)cn2)c(C(=O)c2cnn(CC3CC3)c2)c1 [compound 1046, 4-[5-(2-aminoethyl)pyrimidin-2-yl]-3-[1-(cyclopropylmethyl)pyrazole-4-carbonyl]benzonitrile]
3 | < 10 | N#Cc1ccc(-c2ncc(CN)cn2)c(C(=O)c2cnn(CC3CC3)c2)c1 [compound 1047, 4-[5-(aminomethyl)pyrimidin-2-yl]-3-[1-(cyclopropylmethyl)pyrazole-4-carbonyl]benzonitrile]
4 | < 10 | Cc1cc(C(=O)c2cc(C#N)ccc2-c2ncc(CN)cn2)cc(N2CCOCC2)n1 [compound 1049, 4-[5-(aminomethyl)pyrimidin-2-yl]-3-(2-methyl-6-morpholin-4-ylpyridine-4-carbonyl)benzonitrile]
5 | 10 to 1000 | N#Cc1ccc(-c2ncc(CN)cn2)c(C(=O)c2cnn(-c3nccs3)c2)c1 [compound 1050, 4-[5-(aminomethyl)pyrimidin-2-yl]-3-[1-(1,3-thiazol-2-yl)pyrazole-4-carbonyl]benzonitrile]
6 | > 1000 | Cc1nc(C(=O)c2cc(C#N)ccc2-c2ncc(CN)cn2)cc(N2CCOCC2)n1 [compound 1053, 4-[5-(aminomethyl)pyrimidin-2-yl]-3-(2-methyl-6-morpholin-4-ylpyrimidine-4-carbonyl)benzonitrile]
7 | > 1000 | N#Cc1ccc(-c2ncc(CN)cn2)c(C(=O)c2cnn(-c3ccncn3)c2)c1 [compound 1055, 4-[5-(aminomethyl)pyrimidin-2-yl]-3-(1-pyrimidin-4-ylpyrazole-4-carbonyl)benzonitrile]
8 | 10 to 1000 | N#Cc1ccc(-c2ncc(CN)cn2)c(C(=O)c2cnn(C3CCOCC3)c2)c1 [compound 1056, 4-[5-(aminomethyl)pyrimidin-2-yl]-3-[1-(oxan-4-yl)pyrazole-4-carbonyl]benzonitrile]
9 | < 10 | N#Cc1ccc(-c2ncc(CCN)cn2)c(C(=O)c2cnn(C3CCC3)c2)c1 [compound 1057, 4-[5-(2-aminoethyl)pyrimidin-2-yl]-3-(1-cyclobutylpyrazole-4-carbonyl)benzonitrile]
10 | < 10 | N#Cc1ccc(-c2ncc(CN)cn2)c(C(=O)c2cnn(C3CCC3)c2)c1 [compound 1058, 4-[5-(aminomethyl)pyrimidin-2-yl]-3-(1-cyclobutylpyrazole-4-carbonyl)benzonitrile]
11 | < 10 | CC(C)Cn1cc(C(=O)c2cc(C#N)ccc2-c2ncc(CCN)cn2)cn1 [compound 1060, 4-[5-(2-aminoethyl)pyrimidin-2-yl]-3-[1-(2-methylpropyl)pyrazole-4-carbonyl]benzonitrile]
12 | > 1000 | Cc1sc(N2CCOCC2)nc1C(=O)c1cc(C#N)ccc1-c1ncc(CN)cn1 [compound 1069, 4-[5-(aminomethyl)pyrimidin-2-yl]-3-(5-methyl-2-morpholin-4-yl-1,3-thiazole-4-carbonyl)benzonitrile]

The remaining lines, values behind:

Row | Structure (SMILES) | IC50 [nM]
13 | N#Cc1ccc(-c2ncc(CCN)cn2)c(C(=O)c2cnn(-c3nccs3)c2)c1 [compound 1048, 4-[5-(2-aminoethyl)pyrimidin-2-yl]-3-[1-(1,3-thiazol-2-yl)pyrazole-4-carbonyl]benzonitrile] | < 10
14 | CN(C)c1cc(C(=O)c2cc(C#N)ccc2-c2ncc(CN)cn2)n(C)n1 [compound 1051, 4-[5-(aminomethyl)pyrimidin-2-yl]-3-[5-(dimethylamino)-2-methylpyrazole-3-carbonyl]benzonitrile] | < 10
15 | N#Cc1ccc(-c2ncc(CCN)cn2)c(C(=O)c2cnn(-c3ncccn3)c2)c1 [compound 1052, 4-[5-(2-aminoethyl)pyrimidin-2-yl]-3-(1-pyrimidin-2-ylpyrazole-4-carbonyl)benzonitrile] | 10 to 1000
16 | Cc1nn(C(C)C)cc1C(=O)c1cc(C#N)ccc1-c1ncc(CN)cn1 [compound 1054, 4-[5-(aminomethyl)pyrimidin-2-yl]-3-(3-methyl-1-propan-2-ylpyrazole-4-carbonyl)benzonitrile] | < 10
17 | Cc1nc(N2CCOCC2)sc1C(=O)c1cc(C#N)ccc1-c1ccc(CCN)cc1 [compound 1059, 4-[4-(2-aminoethyl)phenyl]-3-(4-methyl-2-morpholin-4-yl-1,3-thiazole-5-carbonyl)benzonitrile] | < 10
18 | CCN(CC)c1cc(C(=O)c2cc(C#N)ccc2-c2ncc(CN)cn2)n(C)n1 [compound 1061, 4-[5-(aminomethyl)pyrimidin-2-yl]-3-[5-(diethylamino)-2-methylpyrazole-3-carbonyl]benzonitrile] | < 10
19 | Cn1nc(N2CCCCC2)cc1C(=O)c1cc(C#N)ccc1-c1ncc(CCN)cn1 [compound 1062, 4-[5-(2-aminoethyl)pyrimidin-2-yl]-3-(2-methyl-5-piperidin-1-ylpyrazole-3-carbonyl)benzonitrile] | < 10
20 | Cn1nc(N2CCCCC2)cc1C(=O)c1cc(C#N)ccc1-c1ncc(CN)cn1 [compound 1063, 4-[5-(aminomethyl)pyrimidin-2-yl]-3-(2-methyl-5-piperidin-1-ylpyrazole-3-carbonyl)benzonitrile] | < 10
21 | Cc1nc(N2CCOCC2)sc1C(=O)c1cc(C#N)ccc1-c1ncc(CCN)cn1 [compound 1065, 4-[5-(2-aminoethyl)pyrimidin-2-yl]-3-(4-methyl-2-morpholin-4-yl-1,3-thiazole-5-carbonyl)benzonitrile] | < 10
22 | Cc1nc(N2CCOCC2)sc1C(=O)c1cc(C#N)ccc1-c1ccc(CN)cn1 [compound 1066, 4-[5-(aminomethyl)pyridin-2-yl]-3-(4-methyl-2-morpholin-4-yl-1,3-thiazole-5-carbonyl)benzonitrile] | < 10
23 | Cc1sc(N2CCOCC2)nc1C(=O)c1cc(C#N)ccc1-c1ccc(CN)cn1 [compound 1067, 4-[5-(aminomethyl)pyridin-2-yl]-3-(5-methyl-2-morpholin-4-yl-1,3-thiazole-4-carbonyl)benzonitrile] | > 1000
24 | Cc1sc(N2CCOCC2)nc1C(=O)c1cc(C#N)ccc1-c1ccc(CCN)cn1 [compound 1068, 4-[5-(2-aminoethyl)pyridin-2-yl]-3-(5-methyl-2-morpholin-4-yl-1,3-thiazole-4-carbonyl)benzonitrile] | 10 to 1000
25 | Cc1sc(N2CCOCC2)nc1C(=O)c1cc(C#N)ccc1-c1ncc(CCN)cn1 [compound 1070, 4-[5-(2-aminoethyl)pyrimidin-2-yl]-3-(5-methyl-2-morpholin-4-yl-1,3-thiazole-4-carbonyl)benzonitrile] | > 1000
26 | Cn1nc(N2CCCC2)cc1C(=O)c1cc(C#N)ccc1-c1ncc(CCN)cn1 [compound 1071, 4-[5-(2-aminoethyl)pyrimidin-2-yl]-3-(2-methyl-5-pyrrolidin-1-ylpyrazole-3-carbonyl)benzonitrile] | < 10
27 | Cn1nc(N2CCCC2)cc1C(=O)c1cc(C#N)ccc1-c1ncc(CN)cn1 [compound 1072, 4-[5-(aminomethyl)pyrimidin-2-yl]-3-(2-methyl-5-pyrrolidin-1-ylpyrazole-3-carbonyl)benzonitrile] | < 10
28 | CCN(CC(F)F)c1cc(C(=O)c2cc(C#N)ccc2-c2ncc(CCN)cn2)n(C)n1 [compound 1073, 4-[5-(2-aminoethyl)pyrimidin-2-yl]-3-[5-[2,2-difluoroethyl(ethyl)amino]-2-methylpyrazole-3-carbonyl]benzonitrile] | < 10
